Laboratory results taken from ChEMBL document CHEMBL1201862, “PubChem BioAssay data set” (2004).
One block for each compound: values may come before it. Calls of active or inactive are those of the source.

Columns and labels:
[1] = target: T1, G-protein coupled receptor 55 (Homo sapiens, UniProt Q9Y2T6); assay: selective activators of receptor GPR55 – imaging, U2OS cells, beta-arrestin-GFP redistribution, primary screen (AID 1961); format: functional
[2] = HEK-293T viability loss after treatment – luminescence, T-cell screen hits, cytotoxicity control for TCR NF-kB inhibitor project, dose response (AID 489026); format: functional, cell-based;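 also: cells exposed to compound about 14 hours before the viability readout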
J774.A1 = assay: Confirmation of image-based Screening Assay for Inhibitors of Phagocytosis. [Related pubchem assays (depositor defined):AID1029, AID1643]; format: functional, cell-based; details: Mus musculus
Neutrophil collagenase = Neutrophil collagenase (Homo sapiens, UniProt P22894); assay: potency against MMP13, MMP2, MMP3, MMP14 – biochemical, probe development, late stage results, selectivity assay for MMP13 inhibitor project, late-stage follow-up, panel member MMP-8 [IC50 Assay] (AID 2067)
Neutrophil collagenase, sequence (P22894 whole entry): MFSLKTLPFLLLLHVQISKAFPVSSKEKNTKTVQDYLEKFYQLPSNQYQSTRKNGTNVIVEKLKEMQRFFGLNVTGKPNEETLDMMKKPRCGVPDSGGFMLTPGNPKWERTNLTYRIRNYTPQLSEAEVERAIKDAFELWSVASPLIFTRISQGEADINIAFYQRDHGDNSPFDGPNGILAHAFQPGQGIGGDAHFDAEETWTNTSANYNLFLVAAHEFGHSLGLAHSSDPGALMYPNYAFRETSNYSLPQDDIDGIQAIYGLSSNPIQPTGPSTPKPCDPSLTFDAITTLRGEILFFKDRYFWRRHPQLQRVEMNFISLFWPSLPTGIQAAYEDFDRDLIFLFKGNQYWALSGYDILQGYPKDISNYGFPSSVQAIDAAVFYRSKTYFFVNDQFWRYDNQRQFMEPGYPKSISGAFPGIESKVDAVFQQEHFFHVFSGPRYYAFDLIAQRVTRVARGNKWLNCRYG

[3] = target: G-protein coupled receptor 35 (Homo sapiens, UniProt Q9HC97); assay: inhibition of zaprinast-stimulated GPR35 beta-arrestin translocation – imaging, U2OS, beta-arrestin-GFP, zaprinast agonist, primary screen (AID 2058); format: functional;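 also: antagonist potency meaning inhibition of agonist-induced arrestin redistribution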
G-protein coupled receptor 35, sequence (Q9HC97 whole entry): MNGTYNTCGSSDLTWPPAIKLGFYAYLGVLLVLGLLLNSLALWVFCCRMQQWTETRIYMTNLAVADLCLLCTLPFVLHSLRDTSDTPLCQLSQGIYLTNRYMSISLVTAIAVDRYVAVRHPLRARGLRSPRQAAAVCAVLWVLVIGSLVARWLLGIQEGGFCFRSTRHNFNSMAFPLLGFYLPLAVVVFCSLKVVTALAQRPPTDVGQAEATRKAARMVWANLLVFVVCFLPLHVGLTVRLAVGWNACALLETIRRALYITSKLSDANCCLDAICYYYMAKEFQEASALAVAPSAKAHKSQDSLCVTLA

[4] = target: T1, G-protein coupled receptor 55; assay: inhibition of LPI-stimulated GPR55 beta-arrestin translocation – imaging, U2OS, beta-arrestin-GFP, LPI agonist, primary screen (AID 2013); format: functional;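 also: antagonist potency measured as reduced agonist-driven arrestin aggregation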
Cytochrome P450 2C9 = Cytochrome P450 2C9 (Homo sapiens, UniProt P11712)
Cytochrome P450 2C9, sequence (P11712 whole entry): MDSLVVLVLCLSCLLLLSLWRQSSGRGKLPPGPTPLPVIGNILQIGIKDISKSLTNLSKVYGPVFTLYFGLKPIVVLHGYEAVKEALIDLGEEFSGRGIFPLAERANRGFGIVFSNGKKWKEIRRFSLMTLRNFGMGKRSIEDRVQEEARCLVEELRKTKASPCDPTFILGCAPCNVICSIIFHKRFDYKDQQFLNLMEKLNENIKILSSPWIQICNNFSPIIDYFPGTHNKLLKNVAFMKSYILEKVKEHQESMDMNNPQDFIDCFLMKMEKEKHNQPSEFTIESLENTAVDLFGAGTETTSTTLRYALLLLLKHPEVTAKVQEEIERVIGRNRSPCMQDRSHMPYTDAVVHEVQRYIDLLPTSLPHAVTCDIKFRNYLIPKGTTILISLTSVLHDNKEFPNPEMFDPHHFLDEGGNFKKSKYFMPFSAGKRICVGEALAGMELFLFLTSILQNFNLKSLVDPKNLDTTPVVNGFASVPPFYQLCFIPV

T1 sequence (Q9Y2T6 whole entry): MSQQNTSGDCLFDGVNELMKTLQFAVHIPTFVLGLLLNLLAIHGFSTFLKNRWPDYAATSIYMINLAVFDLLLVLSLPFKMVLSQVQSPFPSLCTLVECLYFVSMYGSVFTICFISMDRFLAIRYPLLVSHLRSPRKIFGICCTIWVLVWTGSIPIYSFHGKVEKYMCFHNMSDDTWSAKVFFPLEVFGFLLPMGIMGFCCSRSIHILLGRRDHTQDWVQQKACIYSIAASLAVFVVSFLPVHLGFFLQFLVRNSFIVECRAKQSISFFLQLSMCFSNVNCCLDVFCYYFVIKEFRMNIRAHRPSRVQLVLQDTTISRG

EC50 [1]: 2.72 µM (active)
Structure (SMILES): CCN(CC)C(=O)CC(c1ccc2c(c1)OCO2)c1c(OC)cc(OC)c2c(-c3ccccc3)cc(=O)oc12 (configuration not stated)

Structure (SMILES): Cc1cccc(N2CCN(C(=O)c3ccc(CS(=O)(=O)c4ccccc4C)o3)CC2C)c1 (configuration not stated)
IC50 [2]: 19.5 µM (active) | IC50 (J774.A1): 0.421 µM (active)

IC50 (Neutrophil collagenase): > 39.8 µM (inactive)
Structure (SMILES): O=c1[nH]c(SCCc2ccccc2)nc2c1CCC2

Structure (SMILES): CC(=O)Oc1ccc(C(c2ccc(OC(C)=O)cc2)c2ccccn2)cc1 [BISACODYL]
IC50 [3]: > 32 µM (inactive) | IC50 [4]: 0.908 µM (active) | AC50 (Cytochrome P450 2C9): 15.8 µM (inconclusive)
